Results: patent US11951214B2, “Capsule formulations” (CHEMOCENTRYX, INC., priority 2018, dated 2024)
In brackets after ≈: the same amount, converted by molar mass. Read-outs that look alike come from different tables or passages of the source.

How the values were obtained:
[1] = Pharmacokinetics of solid solution capsule in patients with ANCA associated vasculitis; assay type: in vivo, Humans; settings: for Days 57-85 Cmin, Mean / AUC(0-t) / Cmax / Tmax: 30 mg twice daily oral, 50:50 solid solution capsules; for AUC(0-t) / Cmax / Tmax: human, in vivo, po; for AUC(0-t): read-out: Day 1 AUC0-6hr, Mean; for Cmax: read-out: Day 1 Cmax, Mean; for Tmax: read-out: Day 1 Tmax, Mean
Method: Solid Solution capsules of Compound 1 comprising 50:50 macrogol-40-glycerol hydroxystearate:PEG-4000 were prepared using the general procedures described in Example 4.
Patients with AAV were randomized and double-blind in placebo-controlled clinical trial conducted in a step-wise manner to evaluate the efficacy and safety of Compound 1 formulated in a solid solution as described above with reduced or no prednisone in comparison with the standard of care full dose prednisone. All patients received either cyclophosphamide (CYC) or rituximab (RTX) intravenously. 22 subjects received 30 mg of Compound 1 as described above b.i.d. for 84 days and no prednisone (prednisone-matching placebo), 22 subjects received 30 mg Compound 1 as described above b.i.d. for 84 days plus a reduced starting dose (i.e., 20 mg/day) of prednisone, and 23 subjects received Compound 1 as described above—matching placebo b.i.d. for 84 days plus a full starting dose of prednisone (i.e., 60 mg/day). All subjects received IV cyclophosphamide or rituximab.

[2] = Solubility of Compound 1 in alternative excipients/solvents (liquid formulations, cranberry juice dilution); assay type: physicochemical
Method: Liquid formulations of PEG400/EtOH and Compound 1 can be prepared using general methods for making liquid formulations known in the art. For example, Compound 1 was dissolved in EtOH with agitation and ambient temperature, then the desired amount of PEG400 was added to achieve the desired ratios.
The liquid formulations of the present example are prepared as described in Example 2. When additional excipients are included, they are added after dissolution of Compound 1 in ethanol.

[3] = pH solubility profile of Compound 1 in buffers, water, HCl and biorelevant media; assay type: physicochemical
[4] = Food effect study (high fat, high calorie meal) in healthy volunteers; assay type: in vivo, human; settings: for Tmax / AUC(0-inf) / AUC(0-t) / Cmax: human, plasma, 30 mg; for AUC(0-inf): read-out: AUC0-inf, Geometric LSM; for AUC(0-t): read-out: AUC0-t, Geometric LSM; for Cmax: read-out: Cmax, Geometric LSM
Method: An open-label study in 16 healthy volunteers to evaluate the pharmacokinetic effect of a high fat (˜50% of total caloric content of the meal), high calorie meal on the solid solution capsule of Compound 1 in a 50:50 mixture of macrogol-40-glycerol hydroxystearate:PEG-4000. Subjects received a single oral dose of 30 mg Compound 1, given in the fed or fasted state. Blood samples were collected for measurement of Compound 1 plasma concentrations.

[5] = AAV patients, Compound 1 + Low Dose Prednisone
[6] = 30 mg, AAV patients, Compound 1 + No Prednisone
[7] = 30 mg, AAV patients, Compound 1 with or without Prednisone
[8] = healthy volunteers, 30 mg single oral dose, 100 × (test/reference)
[9] = high fat, high calorie meal with 30 mg Compound 1
[10] = po, healthy volunteers, 30 mg single oral dose, 50:50 solid solution capsule, Fasted
[11] = po, healthy volunteers, 30 mg single oral dose, 50:50 solid solution capsule, Fed (high fat, high calorie meal)

Days 57-85 Cmin, Mean [1, 5]: 219 ng/mL
Days 57-85 Cmin, Mean ([1]; AAV patients, Compound 1 + No Prednisone): 177 ng/mL
Days 57-85 Cmin, Mean ([1]; AAV patients, Compound 1 with or without Prednisone): 204 ng/mL
absorption ([1]; following the first dose of 30 mg on Day 1, AAV patients): absorbed rapidly
AUC(0-t) [1, 6]: 526 ng·h/mL
Cmax [1, 6]: 166 ± 55.2 ng/mL
Tmax [1, 6]: 2.85 h
AUC(0-t) [1, 7]: 580 ± 219 ng·h/mL
Cmax [1, 7]: 188 ± 69 ng/mL
Tmax [1, 7]: 2.62 h
AUC(0-t) [1, 5]: 643 ng·h/mL
Cmax [1, 5]: 214 ng/mL
Tmax [1, 5]: 2.35 h
drug-drug interaction ([1]; with concomitant medications prednisone, cyclophosphamide, and rituximab, AAV patients): No significant drug-drug interaction
solubility ([2]; Captisol in water (40% w/v), aqueous with cosolvent or surfactant or cyclodextrin, thermodynamic from solid, Captisol in water (40% w/v), read-out: Solubility): 10 µg/mL (≈ 17.2 µM)
solubility ([2]; Cavitron W7 HP5 in water (40% w/v)): 50 µg/mL (≈ 86 µM)
Additional Observations ([2]; PEG400/EtOH/Cremophor EL (70/25/5 v/v), prepared 20 mg/mL formulation): A translucent solution.
solubility ([2]; PEG400/EtOH/Solutol HS 15 (50/40/10 v/v), organic solvent or mixture, thermodynamic from solid, PEG400/EtOH/Solutol HS 15 (50/40/10 v/v), visually, against 30 mg/mL control solution, read-out: Solubility): ~30000 µg/mL (≈ 51600 µM)
solubility ([2]; PEG400/EtOH/Solutol HS 15 (50/45/5 v/v), organic solvent or mixture, thermodynamic from solid, PEG400/EtOH/Solutol HS 15 (50/45/5 v/v), visually, against 30 mg/mL control solution, read-out: Solubility): ~30000 µg/mL (≈ 51600 µM)
solubility ([2]; PEG400/EtOH/Solutol HS 15 (70/20/10 v/v), organic solvent or mixture, PEG400/EtOH/Solutol HS 15 (70/20/10 v/v), read-out: Solubility): 20400 µg/mL (≈ 35100 µM)
Additional Observations ([2]; PEG400/EtOH/Solutol HS 15 (70/25/5 v/v), 20.0 mg/mL, in cranberry juice): Precipitate forms in cranberry juice.
solubility ([2]; PEG400/EtOH/Solutol HS 15 (70/25/5 v/v), organic solvent or mixture, PEG400/EtOH/Solutol HS 15 (70/25/5 v/v), read-out: Solubility): 20000 µg/mL (≈ 34400 µM)
solubility ([2]; PEG400/EtOH/Transcutol P (50/40/10 v/v), organic solvent or mixture, PEG400/EtOH/Transcutol P (50/40/10 v/v), second listing, read-out: Solubility): 20200 µg/mL (≈ 34700 µM)
solubility ([2]; PEG400/EtOH/Transcutol P (50/40/10 v/v), organic solvent or mixture, thermodynamic from solid, PEG400/EtOH/Transcutol P (50/40/10 v/v), visually, against 30 mg/mL control solution, read-out: Solubility): ~30000 µg/mL (≈ 51600 µM)
solubility ([2]; PEG400/EtOH/Transcutol P (50/45/5 v/v), organic solvent or mixture, PEG400/EtOH/Transcutol P (50/45/5 v/v), second listing, read-out: Solubility): 19900 µg/mL (≈ 34200 µM)
solubility ([2]; PEG400/EtOH/Transcutol P (50/45/5 v/v), organic solvent or mixture, PEG400/EtOH/Transcutol P (50/45/5 v/v), visually, against 30 mg/mL control solution, read-out: Solubility): ~30000 µg/mL (≈ 51600 µM)
solubility ([2]; PEG400/Propylene Glycol (50/50 v/v), organic solvent or mixture, PEG400/Propylene Glycol (50/50 v/v), read-out: Solubility): 10900 µg/mL (≈ 18700 µM)
solubility ([3]; Fasted-State Simulated Intestinal Fluid (FaSSIF), FaSSIF, pH 6.5, actual pH 6.47): 0.656 µg/mL (≈ 1.13 µM)
solubility ([3]; Fed-State Simulated Intestinal Fluid (FeSSIF), FeSSIF, pH 5, actual pH 4.98): 2.09 µg/mL (≈ 3.6 µM)
solubility ([3]; Fed-State Simulated Intestinal Fluid (FeSSIF), FeSSIF, pH 6.5, actual pH 6.47): 1.96 µg/mL (≈ 3.37 µM)
solubility ([3]; Simulated Gastric Fluid (SGF), simulated gastric fluid, SGF, pH 1.6, actual pH 1.39): 2.65 µg/mL (≈ 4.55 µM)
solubility ([3]; Water, actual pH 5.92): 0.008 µg/mL (≈ 0.0138 µM)
aqueous solubility ([3]; across full spectrum of pH range, including the biorelevant media and water): very poor aqueous solubility
solubility ([3]; aqueous buffer, pH 2 Buffer, actual pH 1.99): 0.863 µg/mL (≈ 1.48 µM)
solubility ([3]; aqueous buffer, pH 3 Buffer, actual pH 3.01): 0.101 µg/mL (≈ 0.174 µM)
solubility ([3]; aqueous buffer, pH 4 Buffer, actual pH 4.01): 0.013 µg/mL (≈ 0.0224 µM)
solubility ([3]; aqueous buffer, pH 5 Buffer, actual pH 5.00): 0.021 µg/mL (≈ 0.0361 µM)
solubility ([3]; aqueous buffer, pH 6 Buffer, actual pH 6.00): 0.021 µg/mL (≈ 0.0361 µM)
solubility ([3]; aqueous buffer, pH 7 Buffer, actual pH 7.03): 0.053 µg/mL (≈ 0.0911 µM)
solubility ([3]; aqueous buffer, pH 8 Buffer, actual pH 8.00): 0.068 µg/mL (≈ 0.117 µM)
solubility ([3]; aqueous buffer, pH 9 Buffer, actual pH 9.00): 0.101 µg/mL (≈ 0.174 µM)
solubility ([3]; aqueous buffer, pH 10 Buffer, actual pH 9.95): 0.03 µg/mL (≈ 0.0516 µM)
solubility ([3]; simulated gastric fluid, 0.1N HCl, actual pH 1.05): 8.05 µg/mL (≈ 13.8 µM)
AUC0-inf, GMR (fed/fasted) [4, 8]: 171.60%
AUC0-t, GMR (fed/fasted) [4, 8]: 170.68%
Cmax, GMR (fed/fasted) [4, 8]: 107.98%
Tmax, GMR (fed/fasted) [4, 8]: 235.29%
increase of Cmax, fed compared to fasted [4, 9]: 8%
increase of plasma Compound 1 AUC, fed compared to fasted [4, 9]: approximately 70%
Tmax ([4]; oral, high fat, high calorie meal with 30 mg Compound 1, read-out: delay of Tmax in the fed population): ~3 h
AUC(0-inf) [4, 10]: 959 ng·h/mL
AUC(0-t) [4, 10]: 826 ng·h/mL
Cmax [4, 10]: 119 ng/mL
Tmax ([4]; po, healthy volunteers, 30 mg single oral dose, 50:50 solid solution capsule, Fasted, read-out: Tmax, untransformed LSM): 2.29 h
AUC(0-inf) [4, 11]: 1650 ng·h/mL
AUC(0-t) [4, 11]: 1410 ng·h/mL
Cmax [4, 11]: 128 ng/mL
Tmax ([4]; po, healthy volunteers, 30 mg single oral dose, 50:50 solid solution capsule, Fed (high fat, high calorie meal), read-out: Tmax, untransformed LSM): 5.38 h
SMILES: Cc1ccc(NC(=O)[C@H]2CCCN(C(=O)c3c(C)cccc3F)[C@H]2c2ccc(NC3CCCC3)cc2)cc1C(F)(F)F [Compound 1, (2R,3 S)-2-(4-(cyclopentylamino)phenyl)-1-(2-fluoro-6-methylbenzoyl)-N-(4-methyl-3-(trifluoromethyl)phenyl)piperidine-3-carboxamide]
Additional Observations ([2]; Captisol in water (40% w/v), overnight): API undissolved overnight even with warming to 60°.
Additional Observations ([2]; Cavitron W7 HP5 in water (40% w/v), overnight): API undissolved overnight even with warming to 60°.
Additional Observations ([2]; PEG400/EtOH/Cremophor EL (50/45/5 v/v), prepared 20 mg/mL formulation): A translucent solution with floating fine particles.
Additional Observations ([2]; PEG400/EtOH/Solutol HS 15 (50/40/10 v/v), ~30 mg/mL, overnight): few API particles left overnight, did not attempt
Additional Observations ([2]; PEG400/EtOH/Solutol HS 15 (50/45/5 v/v), ~30 mg/mL, overnight): API particles left overnight, did not attempt cranberry
Additional Observations ([2]; PEG400/EtOH/Solutol HS 15 (70/20/10 v/v), 20.4 mg/mL, in cranberry juice): Slow to precipitate with addition to cranberry juice.
Additional Observations ([2]; PEG400/EtOH/Transcutol P (50/40/10 v/v), ~30 mg/mL, overnight): few API particles left overnight, did not attempt
Additional Observations ([2]; PEG400/EtOH/Transcutol P (50/45/5 v/v), ~30 mg/mL, overnight): few API particles left overnight, did not attempt
Additional Observations ([2]; PEG400/Propylene Glycol (50/50 v/v), overnight, then addition of cranberry juice): Somewhat dissolved overnight, however, precipitation
solubility in control vehicle ([2]; control solution of PEG400/EtOH (50/50% v/v) with 30 mg/mL): Compound 1 is not fully soluble in control vehicle. A few
